Test results as given in patent publication US11365170B2, “Non-solvate crystal of eucomic acid and method for producing same” (KYOWA HAKKO BIO CO., LTD., priority 2018, dated 2022).

How the values were obtained:
Assay type in all cases: physicochemical
[1] = Angle of repose measurement (Multi Tester MT-1001T); conditions: sieve 1.18 mm, vibration width 0.5 to 0.6 mm; mean of three sites
Excerpt: The angle of repose refers to an angle formed by a generating line of a cone formed with a powder when the powder is allowed to gently fall onto the horizontal plane through a kind of funnel and a horizontal plane.
The angle of repose can be measured using Multi Tester MT-1001T (manufactured by Seishin Enterprise Co, Ltd.) in accordance with the accompanying manual according to the following measurement example.
Measurement Example of Angle of Repose
Used equipment: multi-tester MT-1001T type (manufactured by Seishin Enterprise Co., Ud.)
Vibration width: 0.5 to 0.6 mm
Measurement method: Crystals are allowed to fall by passing through a sieve of 1.18 mm that is vibrated with a width of 0.5 to 0.6 mm, and are deposited on an angle-of-repose table (part number: MT-1029). The angle-of-repose table is rotated without being given vibration, angles are read at three sites, and an arithmetic mean value of the angles is determined to be the angle of repose.

[2] = Methanol content in crystal, except methanol adhering to the crystal surface, by thermal analysis; conditions: excluding surface-adhering methanol
Excerpt: The fact that the methanol solvate crystal of eucomic acid is a mono-methanol solvate crystal can be confirmed by the fact that a methanol content in the crystal except for methanol adhering to a crystal surface thereof is generally 7.0 to 14.0 wt %, preferably 9.0 to 11.0 wt %.
The methanol content in the crystal except for the methanol adhering to the crystal surface can be measured by, for example, thermal analysis described in the following measurement example.
Measurement Example of Methanol Content in Crystal by Thermal Analysis
Used equipment: EXSTAR 6000 TG/DTA 6200 (manufactured by Seiko Instruments Inc.)
Measurement conditions: Temperature rises from 20° C. to 30° C. at 20° C./min→Hold for 15 minutes at 30° C.→Temperature rises from 30° C. to 250° C. at 5° C./min
Nitrogen flow rate: 300 mL/min

[3] = Methanol content (residual methanol) measured using a gas chromatograph; conditions: value includes methanol adhering to the crystal surface
Description: Analysis Example Using Gas Chromatograph
Used equipment: GC-2014 (manufactured by Shimadzu Corporation)
Column: AGILENT J&W DB-WAX 30 m×0.535 mm×1.00 μm (Agilent Technologies, Inc.)
Column temperature: 200° C.
By analysis using HPLC, it was confirmed that the crystal was a crystal of eucomic acid. […] The methanol content is a value including methanol adhering to the crystal surface. The methanol content in the crystal except for the methanol adhering to the crystal surface was 9.0 wt %. It was considered from this that the crystal was a mono-methanol solvate crystal of eucomic acid.
Subsequently, the obtained methanol solvate crystal of eucomic acid was heated and dried at 100° C. for 9 hours at normal pressure. By analysis using HPLC, it was confirmed that the crystal after heating and drying was a crystal of eucomic acid. […] As a result of measuring residual methanol using a gas chromatograph, a methanol content of the crystal was 0.14 wt %. It was found from the above that the crystal was a non-solvate crystal of eucomic acid.

[4] = Uniformity coefficient from particle size distribution measurement; conditions: ratio of 60% passing to 10% passing particle diameter; closer to 1 = higher fluidity
Excerpt: The uniformity coefficient is an index representing fluidity of the powder, and refers to a ratio obtained by dividing a particle diameter through which the powder in an amount of 60% passes by a particle diameter through which the powder in an amount of 10% passes on a cumulative particle diameter distribution curve measured by particle size distribution measurement or sieve division. The closer the value of the uniformity coefficient is to 1, the higher the fluidity is.
The uniformity coefficient can be measured in accordance with the accompanying manual using, for example, a particle size distribution measuring device LS 13 32 (manufactured by Beckman Coulter, Inc.).

[5] = Water content by Karl Fischer method; conditions: crystal after heating and drying at 100° C. for 9 hours
Description: Measurement Example by Karl Fischer Method
Used equipment: AQV-2200 (HIRANUMA SANGYO Co., Ltd.)
Measurement method: The water content in the crystal is measured in accordance with instructions for use of AQV-2200 (HIRANUMA SANGYO Co., Ltd.)

Row | Angle of repose [1] [degree] | Methanol content in the crystal except for the methanol adhering to the crystal surface [2] [wt %] | Methanol content [3] [wt %] | Methanol content ([3]; listed as methanol solvate crystal of eucomic acid) [wt %] | Uniformity coefficient [4] | Methanol content ([3]; listed as non-solvate crystal of eucomic acid) [wt %] | Water content (hydrated water) [5] | SMILES
1 | 45.7 | 9.0 | 28.1 | 28.1 | 4.25 |  |  | O=C(O)C[C@](O)(Cc1ccc(O)cc1)C(=O)O [Methanol solvate crystal, (R)-2-hydroxy-2-[(4-hydroxyphenyl)methyl]butanedioic acid]
2 | 39.0 |  | 0.14 |  | 3.36 | 0.14 | did not contain hydrated water | O=C(O)C[C@](O)(Cc1ccc(O)cc1)C(=O)O [Non-solvate crystal, (R)-2-hydroxy-2-[(4-hydroxyphenyl)methyl]butanedioic acid]
